Data: DBAASP
≈ marks a conversion by molar mass, not a printed value. Where “and” joins values, the source holds several entries; their conditions need not be identical. Identical values can stand only once. Each block holds one compound with its values, some of them ahead of it.

Key:
Test in all cases: ≥ marks a high value that may be exact or a test limit, other limits are often not marked, values filed in µg/mL are converted to µM
[1] = test system: Staphylococcus aureus ATCC 25923
[2] = test system: Acinetobacter baumannii ATCC 19606
[3] = test system: Escherichia coli ATCC 25922
[4] = test system: Pseudomonas aeruginosa ATCC 27853
[5] = test system: Bacillus subtilis ATCC 23857
[6] = test system: Staphylococcus epidermidis ATCC 12228
[7] = test system: Enterococcus faecalis ATCC 29212
[8] = test system: Klebsiella pneumoniae ATCC 700603
[9] = test system: Pseudomonas aeruginosa PAO1
[10] = test system: Staphylococcus aureus USA 300
[11] = test system: Klebsiella pneumoniae ATCC 13883
Staphylococcus aureus = test system: Staphylococcus aureus
Pseudomonas aeruginosa = test system: Pseudomonas aeruginosa
Bacillus subtilis 168 = test system: Bacillus subtilis 168
Escherichia coli B = test system: Escherichia coli B
[12] = test system: Pseudomonas aeruginosa ATCC 9027
Acinetobacter baumannii = test system: Acinetobacter baumannii
[13] = test system: Salmonella enterica subsp. enterica serovar Typhimurium ATCC 14028

MIC [1]: 57.9 µM (≈ 63.9 µg/mL)
MIC [2]: 14.5 µM (≈ 16 µg/mL)
MIC [3]: 14.5 µM (≈ 16 µg/mL)
MIC [4]: 14.5 µM (≈ 16 µg/mL)
SMILES: CC(C)C[C@H](NC(=O)[C@H](CC(C)C)NC(=O)[C@H](CCCCN)NC(=O)[C@H](CCCCN)NC(=O)[C@H](CC(C)C)NC(=O)[C@H](CS)NC(=O)[C@H](CCCCN)NC(=O)[C@H](CC(C)C)NC(=O)[C@@H](N)Cc1ccccc1)C(N)=O [FLKCLKKLL]

MIC [5]: 16 µM (≈ 21.8 µg/mL)
MIC [1]: 16 µM (≈ 21.8 µg/mL)
MIC [2]: 64 µM (≈ 87.2 µg/mL)
MIC [6]: 4 µM (≈ 5.45 µg/mL)
MIC [7]: 64 µM (≈ 87.2 µg/mL)
MIC [3]: 16 µM (≈ 21.8 µg/mL)
MIC [4]: 8 µM (≈ 10.9 µg/mL)
MIC [8]: 32 µM (≈ 43.6 µg/mL)
SMILES: C[C@@H](O)[C@H](NC(=O)[C@H](CCCCN)NC(=O)[C@H](Cc1c[nH]c2ccccc12)NC(=O)[C@H](CCCN=C(N)N)NC(=O)[C@H](CCCCN)NC(=O)[C@H](Cc1ccccc1)NC(=O)[C@H](Cc1ccccc1)NC(=O)CN)C(=O)N[C@@H](Cc1ccccc1)C(=O)N[C@@H](Cc1ccccc1)C(N)=O [GFFKRWKTFF]

MIC [5]: ≥ 128 µM
MIC [3]: 64 µM (≈ 77.4 µg/mL)
SMILES: CC[C@H](C)[C@H](NC(=O)CNC(=O)[C@H](C)NC(=O)[C@@H](NC(=O)[C@@H](NC(=O)CN)[C@@H](C)CC)[C@@H](C)CC)C(=O)NCC(=O)N[C@H](C(=O)N[C@@H](CCCCN)C(=O)N[C@H](C(=O)N[C@@H](CCCCN)C(=O)N[C@@H](CCCCN)C(N)=O)[C@@H](C)CC)[C@@H](C)CC [GIIAGIGIKIKK]

MIC [5]: ≥ 64 µM
MIC [3]: 128 µM (≈ 157 µg/mL)
SMILES: CC[C@H](C)[C@H](NC(=O)CN)C(=O)N[C@H](C(=O)N[C@@H](C)C(=O)NCC(=O)N[C@H](C(=O)N[C@H](C(=O)N[C@H](C(=O)N[C@@H](CCCCN)C(=O)N[C@@H](C)C(=O)N[C@@H](CCCCN)C(=O)N[C@@H](CCCCN)C(N)=O)[C@@H](C)CC)[C@@H](C)CC)[C@@H](C)CC)[C@@H](C)CC [GIIAGIIIKAKK]

MIC [9]: 8.8 µM (≈ 11.4 µg/mL)
MIC [3]: 2.16 µM (≈ 2.8 µg/mL)
MIC [10]: 0.78 µM (≈ 1.01 µg/mL)
MIC [11]: 3.1 µM (≈ 4.02 µg/mL)
SMILES: CC(C)C[C@H](NC(=O)[C@H](CC(C)C)NC(=O)[C@H](CCCCN)NC(=O)CNC(=O)[C@H](CC(C)C)NC(=O)[C@H](CC(C)C)NC(=O)[C@H](CO)NC(=O)[C@H](C)NC(=O)[C@H](CC(C)C)NC(=O)[C@H](CO)NC(=O)[C@H](CC(C)C)NC(=O)[C@H](CC(C)C)NC(=O)CN)C(N)=O [GLLSLASLLGKLL]

MIC [9]: > 25 µM
MIC [3]: > 25 µM
MIC [10]: 25 µM (≈ 27.8 µg/mL)
MIC [11]: 25 µM (≈ 27.8 µg/mL)
SMILES: CC(C)C[C@H](NC(=O)[C@H](CC(C)C)NC(=O)[C@H](CCCCN)NC(=O)CNC(=O)[C@H](CC(C)C)NC(=O)[C@H](CO)NC(=O)[C@H](CC(C)C)NC(=O)[C@H](CO)NC(=O)[C@H](CC(C)C)NC(=O)[C@H](CC(C)C)NC(=O)CN)C(N)=O [GLLSLSLGKLL]

MIC (Staphylococcus aureus): 75 µM (≈ 106 µg/mL)
MIC (Pseudomonas aeruginosa): > 100 µM
MIC (Bacillus subtilis 168): 3 µM (≈ 4.26 µg/mL)
MIC (Escherichia coli B): ≥ 33.3 µM
SMILES: CC[C@H](C)[C@H](NC(=O)[C@H](CC(C)C)NC(=O)[C@H](Cc1cnc[nH]1)NC(=O)CNC(=O)[C@H](CC(C)C)NC(=O)[C@@H](NC(=O)[C@H](CCCCN)NC(=O)[C@@H]1CCCN1C(=O)[C@H](Cc1c[nH]c2ccccc12)NC(=O)[C@H](CCSC)NC(=O)CN)[C@@H](C)CC)C(=O)N[C@@H](CCCN=C(N)N)C(N)=O [GMWPKILGHLIR]

MIC [5]: 8 µM (≈ 11.3 µg/mL)
MIC [1]: > 128 µM
MIC [3]: 64 µM (≈ 90.2 µg/mL)
MIC [12]: 64 µM (≈ 90.2 µg/mL)
MIC [8]: 128 µM (≈ 180 µg/mL)
SMILES: CC[C@H](C)[C@H](NC(=O)[C@H](CCCCN)NC(=O)[C@H](CCCCN)NC(=O)[C@H](C)NC(=O)[C@@H](NC(=O)[C@H](C)NC(=O)[C@H](C)NC(=O)[C@H](CC(C)C)NC(=O)[C@H](C)NC(=O)[C@H](CCCCN)NC(=O)[C@H](CC(C)C)NC(=O)[C@H](CC(N)=O)NC(=O)CN)C(C)C)C(=O)N[C@@H](CC(C)C)C(N)=O [GNLKALAAVAKKIL]

MIC (Staphylococcus aureus): 38.3 µM (≈ 58.7 µg/mL)
MIC (Pseudomonas aeruginosa): 100 µM (≈ 153 µg/mL)
MIC (Bacillus subtilis 168): 1.5 µM (≈ 2.3 µg/mL)
MIC (Escherichia coli B): 3.5 µM (≈ 5.37 µg/mL)
SMILES: CC[C@H](C)[C@H](NC(=O)[C@H](Cc1cnc[nH]1)NC(=O)[C@H](CCCCN)NC(=O)[C@H](CC(C)C)NC(=O)[C@H](CC(C)C)NC(=O)[C@H](CO)NC(=O)[C@H](CCSC)NC(=O)[C@H](Cc1c[nH]c2ccccc12)NC(=O)[C@H](CCCCN)NC(=O)[C@@H](N)Cc1cnc[nH]1)C(=O)N[C@@H](CC(C)C)C(=O)N[C@@H](CCCCN)C(N)=O [HKWMSLLKHILK]

MIC [2]: 2.22 µM (≈ 7.07 µg/mL)
MIC (Acinetobacter baumannii): 3.14 µM (≈ 10 µg/mL)
SMILES: CC[C@H](C)[C@H](NC(=O)[C@H](CCCN=C(N)N)NC(=O)[C@@H](NC(=O)[C@@H](NC(=O)[C@@H]1CCCN1C(=O)[C@@H](NC(=O)[C@@H](NC(=O)[C@@H](NC(=O)[C@@H]1CCCN1C(=O)CNC(=O)[C@H](Cc1ccc(O)cc1)NC(=O)[C@H](CCCCN)NC(=O)[C@H](CCCCN)NC(=O)[C@H](Cc1c[nH]c2ccccc12)NC(=O)[C@H](C)NC(=O)[C@H](CCCN=C(N)N)NC(=O)[C@H](CC(C)C)NC(=O)[C@@H](NC(=O)[C@H](CCCCN)NC(=O)[C@H](CCCN=C(N)N)NC(=O)CNC(=O)[C@H](CC(C)C)NC(=O)[C@H](CCCCN)NC(=O)[C@H](CCCN=C(N)N)NC(=O)[C@H](CC(C)C)NC(=O)CNC(=O)[C@@H](N)CCCCN)[C@@H](C)CC)[C@@H](C)CC)[C@@H](C)CC)C(C)C)[C@@H](C)CC)[C@@H](C)CC)C(=O)O [KGLRKLGRKILRAWKKYGPIIVPIIRI]

MIC [5]: 8 µM (≈ 12.2 µg/mL)
MIC [1]: 64 µM (≈ 97.4 µg/mL)
MIC [3]: 8 µM (≈ 12.2 µg/mL)
MIC [12]: 8 µM (≈ 12.2 µg/mL)
MIC [8]: 16 µM (≈ 24.4 µg/mL)
SMILES: CC[C@H](C)[C@H](NC(=O)[C@H](CCCCN)NC(=O)[C@H](CCCCN)NC(=O)[C@H](C)NC(=O)[C@@H](NC(=O)[C@H](C)NC(=O)[C@H](CC(C)C)NC(=O)[C@H](CC(C)C)NC(=O)[C@H](C)NC(=O)[C@H](CCCCN)NC(=O)[C@H](CC(C)C)NC(=O)[C@H](CC(N)=O)NC(=O)[C@@H](N)CCCCN)C(C)C)C(=O)N[C@@H](CC(C)C)C(N)=O [KNLKALLAVAKKIL]

MIC [5]: ≥ 32 µM
MIC [1]: 128 µM (≈ 186 µg/mL)
MIC [3]: 32 µM (≈ 46.4 µg/mL)
MIC [12]: 32 µM (≈ 46.4 µg/mL)
MIC [8]: 64 µM (≈ 92.9 µg/mL)
SMILES: CC[C@H](C)[C@H](NC(=O)[C@H](CCCCN)NC(=O)[C@H](CCCCN)NC(=O)[C@H](C)NC(=O)[C@@H](NC(=O)[C@H](C)NC(=O)CNC(=O)[C@H](CC(C)C)NC(=O)[C@H](C)NC(=O)[C@H](CCCCN)NC(=O)[C@H](CC(C)C)NC(=O)[C@H](CC(N)=O)NC(=O)[C@@H](N)CC(C)C)C(C)C)C(=O)N[C@@H](CC(C)C)C(N)=O [LNLKALGAVAKKIL]

MIC (Staphylococcus aureus): 100 µM (≈ 105 µg/mL)
MIC (Pseudomonas aeruginosa): 100 µM (≈ 105 µg/mL)
MIC (Bacillus subtilis 168): ≥ 100 µM
MIC (Escherichia coli B): ≥ 100 µM
SMILES: CSCC[C@H](NC(=O)[C@H](Cc1cnc[nH]1)NC(=O)[C@H](C)NC(=O)[C@H](CCSC)NC(=O)[C@@H](NC(=O)[C@H](CCCCN)NC(=O)[C@@H]1CCCN1C(=O)[C@@H](N)CC(C)C)C(C)C)C(=O)N[C@@H](CCCCN)C(N)=O [LPKVMAHMK]

MIC (Bacillus subtilis 168): ≥ 100 µM
MIC (Escherichia coli B): ≥ 100 µM
SMILES: CSCC[C@H](NC(=O)[C@H](Cc1cnc[nH]1)NC(=O)[C@H](C)NC(=O)[C@H](CCSC)NC(=O)[C@@H](NC(=O)[C@H](CCCCN)NC(=O)[C@@H]1CCCN1)C(C)C)C(=O)N[C@@H](CCCCN)C(N)=O [PKVMAHMK]

MIC [13]: 14.8 µM and 30 µM
MIC [1]: > 30 µM
MIC [9]: > 30 µM
MIC [2]: > 30 µM
MIC [3]: 22.2 µM and 30 µM
MIC [11]: 30 µM (≈ 56.7 µg/mL)
SMILES: CC(C)C[C@H](NC(=O)[C@H](C)NC(=O)[C@H](CCCN=C(N)N)NC(=O)[C@H](CCCN=C(N)N)NC(=O)[C@H](Cc1ccccc1)NC(=O)[C@H](C)NC(=O)[C@H](Cc1c[nH]c2ccccc12)NC(=O)CNC(=O)[C@H](CCCN=C(N)N)NC(=O)[C@@H](N)CCCN=C(N)N)C(=O)N[C@@H](C)C(=O)N[C@@H](Cc1ccc(O)cc1)C(=O)NCC(=O)N[C@@H](CCCN=C(N)N)C(=O)N[C@@H](CCCN=C(N)N)C(N)=O [RRGWAFRRALAYGRR]
